The text below walks through data of publication PMC9268591, “Anti-Inflammatory, Analgesic and Antioxidant Potential of New (2S,3S)-2-(4-isopropylbenzyl)-2-methyl-4-nitro-3-phenylbutanals and Their Corresponding Carboxylic Acids through In Vitro, In Silico and In Vivo Studies” (Molecules, 2022).

A short description of data set [1]: ABTS free radical scavenging assay. As for the experimental part:
The total antioxidant activity of test compound (HBH) was estimated using the 2, 2-azinobis [3-ethylbenzthiazoline]-6-sulfonic acid (ABTS). The 100 mL of ABTS solution (7 mM) was added to 100 mL of potassium persulfate ([…], 2.45 mM) solution, mixed, and kept in the dark for 12 h to generate free radicals. […]. Gallic acid at 2 mg/2 mL of water was used as a standard drug. Likewise, for the test sample, different concentrations (1000–62.5 μg/mL) of the […] were made for absorbance measurements at the same wavelength. The 300 μL of each test solution was added to 3 mL of ABTS solution to measure the absorbance at 745 nm through a UV-visible spectrophotometer. A similar volume of each standard solution was taken to determine the absorbance at the same wavelength. The ABTS percent scavenging potential was calculated via the above formula [45].

A further data set deals with T1, COX-2 (Homo sapiens, UniProt P35354).
T1 construct: purchased Sigma Aldrich Germany C0858
T1 sequence (P35354 18-604): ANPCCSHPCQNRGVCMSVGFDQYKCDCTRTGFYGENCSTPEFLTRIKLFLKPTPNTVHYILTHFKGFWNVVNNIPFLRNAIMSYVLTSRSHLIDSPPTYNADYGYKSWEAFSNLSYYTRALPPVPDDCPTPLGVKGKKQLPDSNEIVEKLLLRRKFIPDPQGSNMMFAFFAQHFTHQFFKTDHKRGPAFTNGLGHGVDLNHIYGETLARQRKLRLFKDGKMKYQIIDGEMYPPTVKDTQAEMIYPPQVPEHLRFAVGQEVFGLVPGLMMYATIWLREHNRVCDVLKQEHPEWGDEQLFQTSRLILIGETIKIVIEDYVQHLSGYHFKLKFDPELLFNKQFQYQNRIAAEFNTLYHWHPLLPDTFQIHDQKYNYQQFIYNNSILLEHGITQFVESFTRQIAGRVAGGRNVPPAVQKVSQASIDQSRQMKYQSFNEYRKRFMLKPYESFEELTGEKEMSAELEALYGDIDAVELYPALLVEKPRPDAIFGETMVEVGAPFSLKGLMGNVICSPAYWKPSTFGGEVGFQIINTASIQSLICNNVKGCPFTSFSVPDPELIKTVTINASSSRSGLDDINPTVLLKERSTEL
The data set is described as follows: Cyclooxygenase (COX-2) inhibition assay. The class given is biochemical. Conditions: for SI (calculated selectivity index): COX-2 selectivity over COX-1; for IC50: read-out: IC50 ± SEM COX-2. How it is done:
(§1) The COX-1 and 2 enzymes’ inhibitions assays on the synthesized compounds were carried out as per the standard reported method. Initially, the respective enzyme solution was prepared in a concentration of 300 units/mL. The enzyme activation was started with keeping 10 µL of enzyme solution in the cold for up to 10 min. To this enzyme solution was added the substrate solution in HCl (0.1 M Trish buffer with pH of 8.0). The co-factor 50 µL solution contained TMPD (N,N,N,N-tetramethyl-p-phenylenediamine dihydrochloride, 0.24 mM), hematin (1 mM) and glutathione (0.9 mM). […] The reaction was initiated by adding arachidonic acid (20 µL, 30 mM). The overall solution was incubated for five minutes. Afterwards, the absorbance was recorded on a UV-visible instrument at 570 nm. From the absorbance value of every sample, the percentage inhibition was calculated as per the standard method.
Cyclooxygenase (COX-2) was acquired from human recombinant (Catalog No:C0858) and […]
co-factor substances in this study like N, N_, N_-tetramethyl-p-phenylenediamine […]
91- 7, GmbH USA). these all were purchased from Sigma Aldrich Germany. Buffer solution containing (KH2PO4 & K2HPO4), was of best quality with high purity. […]
was purchased from Pfizer Pharmaceutical and Libra (Pvt.) limited . Tramadol, Diclofenac was purchased from Alliance Pharmaceutical Pakistan.

Data set [2] can be described thus: DPPH free radical scavenging assay. How it is done: The protocol of Brand-Williams et al. was used for the DPPH assay with some modifications. DPPH (4 mg) was dissolved in methanol (100 mL) to obtain a mixture of […] 1,1-diphenyl,2-picrylhydrazyl (DPPH). The stock solution of the various synthesized compounds was prepared in methanol with 1 mg/mL concentration. This stock solution was used to prepare different concentrations of test samples ranging within 1000–62.5 μg/mL. The 0.1 mL of each concentration (1000–62.5 μg/mL) was combined with the DPPH (3 mL) solution in methanol. The solution was kept at 23 °C for 15 min incubation, followed by the absorbance measurement deliberated at 517 nm. Gallic acid was used as a standard drug in this assay. The percentage DPPH radical scavenging potential was measured via the formula [44]: % radical scavenging potential=CAbs.−SAbs./CAbs.×100 where CAbs. is the absorbance of the control, and SAbs is the absorbance of test samples/standard.
(Loss of DPPH colour is used to gauge radical scavenging.)

Another data set addresses COX-1 (Homo sapiens, UniProt P23219). Kind of data set: Cyclooxygenase (COX-1) inhibition assay. The class given is biochemical. The following applies: read-out: IC50 ± SEM COX-1. As for the experimental part: as §1
Another data set addresses T2, 5-LOX (Homo sapiens, UniProt P09917).
T2 construct: purchased Sigma Aldrich Germany 437996
T2 sequence (P09917 1-674): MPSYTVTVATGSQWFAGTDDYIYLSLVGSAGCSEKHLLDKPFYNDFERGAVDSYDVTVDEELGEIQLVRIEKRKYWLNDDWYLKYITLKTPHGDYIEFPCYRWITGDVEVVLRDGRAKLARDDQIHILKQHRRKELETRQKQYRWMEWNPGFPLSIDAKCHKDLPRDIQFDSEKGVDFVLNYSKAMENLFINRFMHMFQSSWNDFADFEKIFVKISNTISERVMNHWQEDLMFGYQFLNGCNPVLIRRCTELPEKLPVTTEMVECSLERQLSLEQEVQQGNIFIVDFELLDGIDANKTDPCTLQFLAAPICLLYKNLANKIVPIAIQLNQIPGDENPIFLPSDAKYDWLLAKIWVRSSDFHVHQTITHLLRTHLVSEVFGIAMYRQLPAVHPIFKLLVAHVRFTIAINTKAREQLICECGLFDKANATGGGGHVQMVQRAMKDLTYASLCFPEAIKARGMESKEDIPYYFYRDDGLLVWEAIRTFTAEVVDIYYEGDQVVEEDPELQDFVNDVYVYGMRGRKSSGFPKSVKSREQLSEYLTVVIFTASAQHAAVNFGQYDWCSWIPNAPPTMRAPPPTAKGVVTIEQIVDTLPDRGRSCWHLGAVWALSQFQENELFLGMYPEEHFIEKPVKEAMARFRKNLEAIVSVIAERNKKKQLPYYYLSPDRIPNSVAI
Kind of data set: 5-Lipoxygenase (5-LOX) inhibition assay. The class given is biochemical. The following applies: read-out: 5LOX IC50 ± SEM. As for the experimental part: The lipoxygenase inhibition assay on the synthesized compounds was carried out as per the standard reported method. […] The 5-LOX enzyme solution was also prepared at a strength of 10,000 units/mL. The linoleic acid (80 mM) was employed as a substrate in lipoxygenase assay. The buffer (phosphate) was also prepared for the assay having 50 mM strength and a pH of 6.3. The samples of synthesized compounds (250 µL), phosphate buffer (250 µL) and mixture of the enzyme were mixed and incubated for five minutes. Afterwards, the solution of the substrate (0.6 mM, 1000 µL) was mixed with lipoxygenase enzyme mixture with shaking. […] The percent inhibition was calculated as per the standard method. […]
91- 7, GmbH USA). these all were purchased from Sigma Aldrich Germany. Buffer solution
containing (KH2PO4 & K2HPO4), was of best quality with high purity. […]

A further data set deals with albino mice. The data set is described as follows: Acute toxicity. The class given is in vivo. The following applies: highest dose 2000 mg/kg. From the text: Before testing our selected compounds for in vivo experiments, we performed the toxicity test as per the protocol. Four groups of animals were labelled, with eight animals in each group. The control group was given normal saline, while other groups were given different concentrations of the selected compounds.

By melting point is commonly meant the temperature of the solid-liquid transition. One may read the IC50 as the point on the concentration scale where inhibition reaches its midpoint.

COX-1, sequence (P23219 24-599): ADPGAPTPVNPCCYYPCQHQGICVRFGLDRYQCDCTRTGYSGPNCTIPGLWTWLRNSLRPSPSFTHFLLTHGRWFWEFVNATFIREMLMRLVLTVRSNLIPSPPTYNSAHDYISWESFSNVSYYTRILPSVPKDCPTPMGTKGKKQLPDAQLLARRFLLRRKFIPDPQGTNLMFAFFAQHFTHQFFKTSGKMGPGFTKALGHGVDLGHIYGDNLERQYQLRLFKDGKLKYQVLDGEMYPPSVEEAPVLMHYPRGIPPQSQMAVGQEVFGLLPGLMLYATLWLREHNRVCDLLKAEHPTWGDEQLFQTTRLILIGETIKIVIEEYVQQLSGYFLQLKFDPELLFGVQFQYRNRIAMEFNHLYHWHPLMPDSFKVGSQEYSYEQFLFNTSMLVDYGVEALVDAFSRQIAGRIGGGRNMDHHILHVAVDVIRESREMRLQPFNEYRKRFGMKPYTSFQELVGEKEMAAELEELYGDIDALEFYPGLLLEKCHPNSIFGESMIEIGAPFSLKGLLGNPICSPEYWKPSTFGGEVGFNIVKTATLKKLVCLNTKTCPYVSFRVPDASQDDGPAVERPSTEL

In turn, `Cc1ccc([C@H](C[N+](=O)[O-])[C@](C)(Cc2ccc(C(C)C)cc2)C(=O)O)cc1` [FM9] registered a melting point of 233 to 235 °C.
`CC(C)c1ccc(C[C@](C)(C=O)[C@@H](C[N+](=O)[O-])c2ccccc2)cc1` (mixture of isomers) [FM1, (2S,3S)-2-(4-isopropylbenzyl)-2-methyl-4-nitro-3-phenylbutanal] registered a melting point of 149 to 151 °C. Besides, in data set [1], the IC50 came out at 62.9 µM. Besides, on COX-2, the “SI (calculated selectivity index)” value was 12.2 and the half-inhibitory concentration (IC50) was found to be 1.21 ± 0.03 µM. The compound further registered an IC50 in data set [2] of 54.4 µM. Moreover, the IC50 at COX-1 was 14.8 ± 1.19 µM. For the same compound, the IC50 at 5-LOX was 1.81 ± 0.11 µM.
Take `CC(C)c1ccc(C[C@](C)(C=O)[C@@H](C[N+](=O)[O-])c2ccc(Cl)cc2)cc1` (mixture of isomers) [FM2, (2S,3S)-3-(4-chlorophenyl)-2-(4-isopropylbenzyl)-2-methyl-4-nitrobutanal]: the melting point is 173 to 175 °C. This compound also displayed an IC50 in data set [1] of 42 µM. Besides, on COX-2, the “SI (calculated selectivity index)” value is on record as 15.1 and the IC50 was found to be 2.51 ± 0.24 µM. The IC50 in data set [2] amounted to 55.4 µM. Also, the IC50 at COX-1 turned out to be 38 ± 1.65 µM. Further, the IC50 at 5-LOX was 0.64 ± 0.01 µM.
With `CC(C)c1ccc(C[C@](C)(C(=O)O)[C@@H](C[N+](=O)[O-])c2ccccc2)cc1` [FM7, (2S,3S)-2-(4-isopropylbenzyl)-2-methyl-4-nitro-3-phenylbutanoic Acid], the melting point lay within 243 to 245 °C. In addition, the midpoint of inhibition in data set [1], the IC50, lay at 24.7 µM. In addition, on COX-2, the “SI (calculated selectivity index)” value is recorded as 23.2 and the IC50 worked out at 1.09 ± 0.01 µM. For the same compound, inhibition in data set [2] was half-maximal at 22.5 µM (IC50). In addition, at COX-1, the IC50 amounted to 25.3 ± 1.22 µM. In addition, the IC50 on 5-LOX turned out to be 0.73 ± 0.05 µM.
The compound `COc1ccccc1[C@H](C[N+](=O)[O-])[C@](C)(Cc1ccc(C(C)C)cc1)C(=O)O` [FM11] registered a melting point of 211 to 213 °C.
The compound `COc1ccccc1[C@H](C[N+](=O)[O-])[C@@](C)(C=O)Cc1ccc(C(C)C)cc1` (mixture of isomers) [FM5, (2S,3S)-2-(4-isopropylbenzyl)-3-(2-methoxyphenyl)-2-methyl-4-nitrobutanal] displayed a melting point of 129 to 131 °C. Moreover, in data set [1], the IC50 is 191 µM. At COX-2, the “SI (calculated selectivity index)” value is 7.2 and the IC50 was found to be 8.15 ± 0.98 µM. In data set [2], this compound showed an IC50 of 184 µM. Besides, the IC50 on COX-1 is 58.4 ± 2.08 µM. Further, the IC50 at 5-LOX came out at 16.3 ± 1.02 µM.
For `COc1ccc([C@H](C[N+](=O)[O-])[C@@](C)(C=O)Cc2ccc(C(C)C)cc2)cc1` (mixture of isomers) [FM4, (2S,3S)-2-(4-isopropylbenzyl)-3-(4-methoxyphenyl)-2-methyl-4-nitrobutanal], the IC50 was 25.8 µM in data set [1]; 0.74 ± 0.03 µM at COX-2; 21.1 µM in data set [2]; 31.7 ± 1.37 µM at COX-1; 0.98 ± 0.12 µM on 5-LOX. Also, at COX-2, the “SI (calculated selectivity index)” value is 42.8. Also, in the data set on albino mice, the Acute toxicity observation result was “very mild seizures and disturbances in breath (temporary)”.
Consider `O=C(O)c1cc(O)c(O)c(O)c1` [Gallic acid, reference compound], for which the IC50 in data set [1] was determined as 3.23 µM; in data set [2], 9.02 µM.
For the compound `CC(C)c1ccc(C[C@](C)(C(=O)O)[C@@H](C[N+](=O)[O-])c2ccc(Cl)cc2)cc1` [FM8], the melting point was in the range of 259 to 261 °C.
Take `CC(C)c1ccc(C[C@](C)(C=O)[C@@H](C[N+](=O)[O-])c2ccco2)cc1` (mixture of isomers) [FM6, (2S,3S)-3-(furan-2-yl)-2-(4-isopropylbenzyl)-2-methyl-4-nitrobutanal]: the melting point was in the range of 161 to 163 °C. The IC50 in data set [1] was determined as 37.7 µM. At COX-2, the “SI (calculated selectivity index)” value is reported as 11.6 and the half-inhibitory concentration (IC50) was found to be 4.72 ± 0.08 µM. The midpoint of inhibition in data set [2], the IC50, lay at 49.7 µM. On COX-1, the IC50 came to 54.8 ± 1.95 µM. The half-maximal inhibitory concentration (IC50) on 5-LOX is 6.17 ± 0.23 µM.
`Cc1ccc([C@H](C[N+](=O)[O-])[C@@](C)(C=O)Cc2ccc(C(C)C)cc2)cc1` (mixture of isomers) [FM3, (2S,3S)-2-(4-isopropylbenzyl)-2-methyl-4-nitro-3-(p-tolyl)butanal] displayed a melting point of 135 to 137 °C. In addition, in data set [1], the IC50 came out at 11.5 µM. In addition, on COX-2, the “SI (calculated selectivity index)” value is given as 3.6 and the IC50 stood at 3.53 ± 0.18 µM. In data set [2], this compound came in with an IC50 of 15.1 µM. In addition, the IC50 at COX-1 came out at 12.8 ± 1.08 µM. Also, the IC50 at 5-LOX worked out at 9.69 ± 0.99 µM.
